# According to ChEMBL document CHEMBL1201862, “PubChem BioAssay data set” (2004):
# Activity calls are given as the source filed them.
# Key:
# [1] = target: Peroxisome proliferator-activated receptor gamma/Nuclear receptor coactivator 1 (Homo sapiens, UniProt P37231); assay: (§1) TR-FRET dose response biochemical High Throughput Screening assay for agonists of the steroid receptor coactivator 1 (SRC-1) recruitment by the peroxisome proliferator-activated receptor gamma (PPAR gamma): non-selective agonists. [Related pubchem assays (depositor defined):AID1300, AID1808, AID504735, AID631]; format: protein assay
# [2] = target: Peroxisome proliferator-activated receptor gamma/Nuclear receptor coactivator 3 (Homo sapiens, UniProt P37231); assay: as §1, with “3 (SRC-3)” for “1 (SRC-1)”, “assays: 1301 (Confirmation screen.), 1048 (Primary screen.)]” for “assays (depositor defined):AID1300, AID1808, AID504735, AID631]”; format: functional
# [3] = target: Peroxisome proliferator-activated receptor gamma/Nuclear receptor coactivator 2 (Homo sapiens, UniProt P37231); assay: TR-FRET dose response biochemical High Throughput Screening assay for agonists of the steroid receptor coactivator 2 (SRC-2) recruitment by the peroxisome proliferator-activated receptor gamma (PPAR gamma): non-selective agonists. [Related pubchem assays: 1297, 1032 ]; format: functional
# [4] = target: T1, Heat shock factor protein 1 (Mus musculus, UniProt P38532); assay: inhibition of MG132-induced HSE-luciferase signal, confirmation, cell-based, NIH3T3, luminescence, dose retest (AID 2382); format: functional;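 further: NIH3T3 fibroblasts with HSF1-driven luciferase reporter stressed by proteasome inhibitor MG132; luminescence from HSF1-driven luciferase expression after 8 hours of MG132 stress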
# T1 sequence (P38532 whole entry): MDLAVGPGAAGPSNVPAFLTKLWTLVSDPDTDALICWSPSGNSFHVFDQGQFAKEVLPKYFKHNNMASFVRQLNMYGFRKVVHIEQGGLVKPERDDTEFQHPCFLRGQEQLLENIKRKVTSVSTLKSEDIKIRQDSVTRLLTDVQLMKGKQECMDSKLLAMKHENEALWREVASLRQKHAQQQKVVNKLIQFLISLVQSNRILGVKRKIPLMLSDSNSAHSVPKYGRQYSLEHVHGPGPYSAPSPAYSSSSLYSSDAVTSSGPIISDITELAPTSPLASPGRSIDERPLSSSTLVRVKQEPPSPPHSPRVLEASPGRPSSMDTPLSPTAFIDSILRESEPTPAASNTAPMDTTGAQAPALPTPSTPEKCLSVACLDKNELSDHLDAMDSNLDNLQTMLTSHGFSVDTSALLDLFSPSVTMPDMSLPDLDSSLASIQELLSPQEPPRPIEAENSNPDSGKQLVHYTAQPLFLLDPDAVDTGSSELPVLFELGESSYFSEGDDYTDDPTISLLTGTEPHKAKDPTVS
# [5] = target: T2, Luciferin 4-monooxygenase (Photinus pyralis, UniProt P08659); assay: Counter Screen for Luciferase-based Assay Positives. [Related pubchem assays: 620, 618, 411 ]
# Cytochrome P450 2C19 = Cytochrome P450 2C19 (Homo sapiens, UniProt P33261); assay: Cytochrome panel assay with activity outcomes. Panel member name: p450-cyp2c19 Compounds with AC50 equal or less than 10 uM are considered active; format: functional; details: read-out: AC50
# HT-1080 = assay: cytotoxicity in HT1080 fibrosarcoma cells, cell-based, fluorescence readout (AID 620); format: functional; details: Homo sapiens
# [6] = A cytotoxicity screen of small molecule inhibitors of the PhoP region in Salmonella typhi identified in the primary screen. [Related pubchem assays: 1850, 1864, 1985 ]; format: functional
# Beta-galactosidase = Beta-galactosidase (Escherichia coli, UniProt Q8VNN2); assay: beta-galactosidase enzyme inhibitors and activators, dose response, artefact control for CCR6 antagonist project, biochemical, E. coli enzyme, set 3 (AID 504712); format: functional
# [7] = THP-1 cell cytotoxicity, dose response, cytotoxicity control for non-replicating M. tuberculosis project (AID 489025); format: functional
# [8] = HepG2 cell cytotoxicity, dose response, cytotoxicity control for non-replicating M. tuberculosis project (AID 489018); format: functional; details: Mycobacterium tuberculosis
# [9] = microbe, parasite or virus in culture; format: functional; details: Mycobacterium tuberculosis
# [10] = inhibitors of intracellular T. cruzi replication, confirmation, NIH3T3 host cells, beta-gal luminescence (AID 2044); format: functional, cell-based;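 further: intracellular parasites grown in NIH/3T3 mouse fibroblasts as host cells; luminescent beta-galactosidase reporter signal from transgenic T. cruzi replicating inside host cells; inhibitors lower the luminescence signal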
# [11] = Vero E6 cell cytotoxicity, dose response, cytotoxicity control for non-replicating M. tuberculosis project, secondary assay (AID 492998); format: functional, VeroE6; details: Vero C1008
# cells = format: functional
# [12] = cytotoxicity toward NIH3T3 fibroblasts, dose response, counter-screen, cell-based, ATP luminescence, mouse fibroblasts (AID 2010); format: functional;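 further: cells exposed to compound for about 90 hours before reading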
# [13] = HIV-1 Env-mediated cell fusion inhibitors, dose response, CCR5-tropic Env (AID 2279); format: functional
# [14] = Luminescence Cell-Based Dose Confirmation HTS to Identify Inhibitors of Platelet Dense Granule Release. [Related pubchem assays: 1663 (Primary HTS), 1678 (Summary of Project)]; format: functional
# [15] = target: T3, Rac GTPase-activating protein 1 (Homo sapiens, UniProt Q9H0H5); assay: MgcRacGAP GTPase-activating activity inhibitors, confirmation, biochemical, ADP Hunter fluorescence, primary and confirmatory (AID 624330); format: functional
# T3 sequence (Q9H0H5 whole entry): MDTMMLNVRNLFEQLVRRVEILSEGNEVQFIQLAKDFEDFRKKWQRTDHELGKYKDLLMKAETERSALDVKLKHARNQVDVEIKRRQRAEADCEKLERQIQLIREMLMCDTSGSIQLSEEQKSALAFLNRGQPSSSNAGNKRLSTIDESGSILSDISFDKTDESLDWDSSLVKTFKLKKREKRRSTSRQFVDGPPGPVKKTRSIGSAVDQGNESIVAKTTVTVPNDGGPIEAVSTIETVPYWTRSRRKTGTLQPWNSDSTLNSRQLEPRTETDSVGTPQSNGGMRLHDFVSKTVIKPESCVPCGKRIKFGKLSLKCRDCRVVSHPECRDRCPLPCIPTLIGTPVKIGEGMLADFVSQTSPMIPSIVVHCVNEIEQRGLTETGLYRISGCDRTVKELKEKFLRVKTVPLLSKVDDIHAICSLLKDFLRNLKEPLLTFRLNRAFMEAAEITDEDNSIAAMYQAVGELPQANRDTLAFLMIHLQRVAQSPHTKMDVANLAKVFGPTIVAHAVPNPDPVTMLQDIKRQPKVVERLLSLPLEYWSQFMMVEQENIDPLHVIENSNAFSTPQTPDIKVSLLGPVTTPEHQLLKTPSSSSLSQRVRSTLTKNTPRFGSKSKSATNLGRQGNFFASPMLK
# [16] = target: T2, Luciferin 4-monooxygenase; assay: firefly luciferase enzyme inhibitors, dose response, biochemical, luminescence (AID 1891)
# Aminopeptidase N = target: T4, Aminopeptidase N (Plasmodium falciparum FcB1/Columbia, UniProt O96935); assay: P. falciparum M1AAP inhibitors, biochemical, fluorogenic H-Leu-NHMec substrate, 1536-well (AID 1445); design: species or system Plasmodium falciparum 3D7, 3D7
# T4 sequence (O96935 whole entry): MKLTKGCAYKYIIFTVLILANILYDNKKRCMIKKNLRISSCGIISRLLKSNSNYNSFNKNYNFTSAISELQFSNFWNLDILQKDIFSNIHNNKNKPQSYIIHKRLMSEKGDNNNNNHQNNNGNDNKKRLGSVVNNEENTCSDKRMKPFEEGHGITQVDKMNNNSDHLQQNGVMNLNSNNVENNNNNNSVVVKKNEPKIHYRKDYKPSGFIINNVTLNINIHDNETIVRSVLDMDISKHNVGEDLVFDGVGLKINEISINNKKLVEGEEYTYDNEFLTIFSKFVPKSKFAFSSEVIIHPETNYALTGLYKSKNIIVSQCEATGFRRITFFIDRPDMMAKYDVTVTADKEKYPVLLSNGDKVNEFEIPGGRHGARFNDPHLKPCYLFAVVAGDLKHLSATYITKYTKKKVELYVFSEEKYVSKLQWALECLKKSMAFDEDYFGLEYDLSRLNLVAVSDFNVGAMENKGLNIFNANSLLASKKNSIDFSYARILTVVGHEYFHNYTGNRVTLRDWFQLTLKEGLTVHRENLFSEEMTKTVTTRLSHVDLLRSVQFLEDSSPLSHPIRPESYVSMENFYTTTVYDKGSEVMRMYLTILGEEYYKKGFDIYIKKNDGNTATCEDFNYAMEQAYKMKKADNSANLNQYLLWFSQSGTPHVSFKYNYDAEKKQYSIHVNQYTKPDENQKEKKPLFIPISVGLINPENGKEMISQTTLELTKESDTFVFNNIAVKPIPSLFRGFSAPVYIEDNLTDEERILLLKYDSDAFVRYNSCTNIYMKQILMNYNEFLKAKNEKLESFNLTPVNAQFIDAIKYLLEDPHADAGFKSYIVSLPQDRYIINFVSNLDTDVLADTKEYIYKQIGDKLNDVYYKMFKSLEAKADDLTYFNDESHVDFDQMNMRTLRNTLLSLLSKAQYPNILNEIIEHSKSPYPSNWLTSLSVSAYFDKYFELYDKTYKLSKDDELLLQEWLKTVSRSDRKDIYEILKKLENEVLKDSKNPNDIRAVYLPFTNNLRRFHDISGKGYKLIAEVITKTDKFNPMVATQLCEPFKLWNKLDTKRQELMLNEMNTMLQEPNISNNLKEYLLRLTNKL
# Coagulation factor XII = target: T5, Coagulation factor XII (Homo sapiens, UniProt P00748); format: functional;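 further: activated factor XIIa alpha cleaving a fluorogenic AMC peptide substrate; inhibitor potency from loss of enzyme activity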
# T5 sequence (P00748 whole entry): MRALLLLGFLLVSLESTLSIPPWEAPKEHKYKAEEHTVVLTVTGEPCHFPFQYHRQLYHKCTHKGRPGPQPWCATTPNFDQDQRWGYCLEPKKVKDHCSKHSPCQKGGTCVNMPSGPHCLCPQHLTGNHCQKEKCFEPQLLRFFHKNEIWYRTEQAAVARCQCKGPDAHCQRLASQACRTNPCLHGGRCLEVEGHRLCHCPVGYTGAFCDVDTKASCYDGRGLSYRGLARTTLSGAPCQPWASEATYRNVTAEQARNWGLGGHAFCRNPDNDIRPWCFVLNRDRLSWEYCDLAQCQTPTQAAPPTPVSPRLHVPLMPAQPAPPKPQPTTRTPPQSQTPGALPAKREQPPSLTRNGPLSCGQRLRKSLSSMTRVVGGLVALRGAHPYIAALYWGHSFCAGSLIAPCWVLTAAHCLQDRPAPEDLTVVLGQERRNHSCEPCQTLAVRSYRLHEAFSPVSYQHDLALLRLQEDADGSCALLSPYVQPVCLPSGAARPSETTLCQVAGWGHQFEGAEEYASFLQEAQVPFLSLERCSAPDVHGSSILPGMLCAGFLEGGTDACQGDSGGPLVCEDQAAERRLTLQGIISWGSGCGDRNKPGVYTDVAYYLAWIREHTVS
# T2 sequence (P08659 whole entry): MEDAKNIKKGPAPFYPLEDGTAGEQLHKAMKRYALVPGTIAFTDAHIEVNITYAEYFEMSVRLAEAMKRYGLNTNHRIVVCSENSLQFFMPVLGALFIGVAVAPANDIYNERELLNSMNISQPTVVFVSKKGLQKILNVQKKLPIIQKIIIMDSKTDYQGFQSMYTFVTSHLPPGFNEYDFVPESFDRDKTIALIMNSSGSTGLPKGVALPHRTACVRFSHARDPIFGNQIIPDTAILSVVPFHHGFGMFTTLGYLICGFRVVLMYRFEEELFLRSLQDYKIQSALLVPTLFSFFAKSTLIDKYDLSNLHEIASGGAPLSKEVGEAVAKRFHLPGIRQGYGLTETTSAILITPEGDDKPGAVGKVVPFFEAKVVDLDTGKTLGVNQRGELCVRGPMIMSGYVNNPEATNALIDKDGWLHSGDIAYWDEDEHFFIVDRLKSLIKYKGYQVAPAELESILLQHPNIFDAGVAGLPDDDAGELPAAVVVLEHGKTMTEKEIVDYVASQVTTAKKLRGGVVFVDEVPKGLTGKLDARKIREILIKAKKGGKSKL
# Peroxisome proliferator-activated receptor gamma/Nuclear receptor coactivator 2, sequence (P37231 whole entry): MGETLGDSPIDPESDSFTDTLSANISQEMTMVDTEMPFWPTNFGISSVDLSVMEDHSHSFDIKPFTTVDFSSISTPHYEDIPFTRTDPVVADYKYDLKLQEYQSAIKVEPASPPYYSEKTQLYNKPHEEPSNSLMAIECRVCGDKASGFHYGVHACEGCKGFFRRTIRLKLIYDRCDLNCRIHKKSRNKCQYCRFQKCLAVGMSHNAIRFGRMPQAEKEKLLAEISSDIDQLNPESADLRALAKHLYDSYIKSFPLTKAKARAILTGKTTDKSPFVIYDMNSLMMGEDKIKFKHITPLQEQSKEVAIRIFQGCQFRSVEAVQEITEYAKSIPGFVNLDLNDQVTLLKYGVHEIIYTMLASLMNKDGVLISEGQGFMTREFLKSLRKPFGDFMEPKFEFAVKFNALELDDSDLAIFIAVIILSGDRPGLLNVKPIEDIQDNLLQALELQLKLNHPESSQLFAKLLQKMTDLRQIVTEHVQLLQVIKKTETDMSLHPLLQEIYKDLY
# Peroxisome proliferator-activated receptor gamma/Nuclear receptor coactivator 2, sequence (Q15596 whole entry, further chain): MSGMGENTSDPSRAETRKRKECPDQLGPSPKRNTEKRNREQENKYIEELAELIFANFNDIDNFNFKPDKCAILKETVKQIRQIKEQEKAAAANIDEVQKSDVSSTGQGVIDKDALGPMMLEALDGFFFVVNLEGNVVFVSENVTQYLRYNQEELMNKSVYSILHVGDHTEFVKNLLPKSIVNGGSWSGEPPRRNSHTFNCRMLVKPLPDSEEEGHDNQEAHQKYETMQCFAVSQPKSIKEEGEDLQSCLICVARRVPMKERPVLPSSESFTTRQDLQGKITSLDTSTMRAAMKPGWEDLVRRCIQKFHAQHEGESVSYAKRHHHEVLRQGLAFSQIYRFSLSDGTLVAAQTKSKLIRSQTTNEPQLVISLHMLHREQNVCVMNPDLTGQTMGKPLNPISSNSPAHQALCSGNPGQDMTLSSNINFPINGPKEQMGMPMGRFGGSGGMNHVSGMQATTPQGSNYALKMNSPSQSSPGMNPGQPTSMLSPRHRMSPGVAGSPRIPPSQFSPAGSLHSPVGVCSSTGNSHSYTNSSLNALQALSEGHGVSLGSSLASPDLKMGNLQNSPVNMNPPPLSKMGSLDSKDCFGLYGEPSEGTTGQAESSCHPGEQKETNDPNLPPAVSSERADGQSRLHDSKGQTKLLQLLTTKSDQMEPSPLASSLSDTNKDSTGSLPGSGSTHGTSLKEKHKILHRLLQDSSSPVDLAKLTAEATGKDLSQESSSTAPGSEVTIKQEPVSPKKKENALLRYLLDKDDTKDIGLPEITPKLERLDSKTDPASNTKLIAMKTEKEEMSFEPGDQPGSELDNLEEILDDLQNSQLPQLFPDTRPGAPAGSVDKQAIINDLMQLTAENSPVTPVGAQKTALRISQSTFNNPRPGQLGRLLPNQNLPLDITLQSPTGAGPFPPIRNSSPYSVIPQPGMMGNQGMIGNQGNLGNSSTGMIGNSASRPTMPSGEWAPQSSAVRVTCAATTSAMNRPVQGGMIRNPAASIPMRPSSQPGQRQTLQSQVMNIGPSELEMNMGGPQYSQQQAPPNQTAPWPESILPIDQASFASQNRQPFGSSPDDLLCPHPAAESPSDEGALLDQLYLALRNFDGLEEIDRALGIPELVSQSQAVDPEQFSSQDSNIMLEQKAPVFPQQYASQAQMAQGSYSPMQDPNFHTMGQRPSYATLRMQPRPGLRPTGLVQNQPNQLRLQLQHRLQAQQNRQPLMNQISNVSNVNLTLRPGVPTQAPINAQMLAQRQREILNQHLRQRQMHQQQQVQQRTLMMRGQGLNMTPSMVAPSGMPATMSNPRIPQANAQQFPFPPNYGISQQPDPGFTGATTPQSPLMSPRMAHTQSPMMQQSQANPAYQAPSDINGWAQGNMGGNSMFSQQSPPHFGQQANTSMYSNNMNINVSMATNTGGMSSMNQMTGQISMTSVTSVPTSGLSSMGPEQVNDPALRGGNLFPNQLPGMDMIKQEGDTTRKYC
# Peroxisome proliferator-activated receptor gamma/Nuclear receptor coactivator 1, sequence (P37231 whole entry): as the sequence (P37231 whole entry) above
# Peroxisome proliferator-activated receptor gamma/Nuclear receptor coactivator 1, sequence (Q15788 whole entry, further chain): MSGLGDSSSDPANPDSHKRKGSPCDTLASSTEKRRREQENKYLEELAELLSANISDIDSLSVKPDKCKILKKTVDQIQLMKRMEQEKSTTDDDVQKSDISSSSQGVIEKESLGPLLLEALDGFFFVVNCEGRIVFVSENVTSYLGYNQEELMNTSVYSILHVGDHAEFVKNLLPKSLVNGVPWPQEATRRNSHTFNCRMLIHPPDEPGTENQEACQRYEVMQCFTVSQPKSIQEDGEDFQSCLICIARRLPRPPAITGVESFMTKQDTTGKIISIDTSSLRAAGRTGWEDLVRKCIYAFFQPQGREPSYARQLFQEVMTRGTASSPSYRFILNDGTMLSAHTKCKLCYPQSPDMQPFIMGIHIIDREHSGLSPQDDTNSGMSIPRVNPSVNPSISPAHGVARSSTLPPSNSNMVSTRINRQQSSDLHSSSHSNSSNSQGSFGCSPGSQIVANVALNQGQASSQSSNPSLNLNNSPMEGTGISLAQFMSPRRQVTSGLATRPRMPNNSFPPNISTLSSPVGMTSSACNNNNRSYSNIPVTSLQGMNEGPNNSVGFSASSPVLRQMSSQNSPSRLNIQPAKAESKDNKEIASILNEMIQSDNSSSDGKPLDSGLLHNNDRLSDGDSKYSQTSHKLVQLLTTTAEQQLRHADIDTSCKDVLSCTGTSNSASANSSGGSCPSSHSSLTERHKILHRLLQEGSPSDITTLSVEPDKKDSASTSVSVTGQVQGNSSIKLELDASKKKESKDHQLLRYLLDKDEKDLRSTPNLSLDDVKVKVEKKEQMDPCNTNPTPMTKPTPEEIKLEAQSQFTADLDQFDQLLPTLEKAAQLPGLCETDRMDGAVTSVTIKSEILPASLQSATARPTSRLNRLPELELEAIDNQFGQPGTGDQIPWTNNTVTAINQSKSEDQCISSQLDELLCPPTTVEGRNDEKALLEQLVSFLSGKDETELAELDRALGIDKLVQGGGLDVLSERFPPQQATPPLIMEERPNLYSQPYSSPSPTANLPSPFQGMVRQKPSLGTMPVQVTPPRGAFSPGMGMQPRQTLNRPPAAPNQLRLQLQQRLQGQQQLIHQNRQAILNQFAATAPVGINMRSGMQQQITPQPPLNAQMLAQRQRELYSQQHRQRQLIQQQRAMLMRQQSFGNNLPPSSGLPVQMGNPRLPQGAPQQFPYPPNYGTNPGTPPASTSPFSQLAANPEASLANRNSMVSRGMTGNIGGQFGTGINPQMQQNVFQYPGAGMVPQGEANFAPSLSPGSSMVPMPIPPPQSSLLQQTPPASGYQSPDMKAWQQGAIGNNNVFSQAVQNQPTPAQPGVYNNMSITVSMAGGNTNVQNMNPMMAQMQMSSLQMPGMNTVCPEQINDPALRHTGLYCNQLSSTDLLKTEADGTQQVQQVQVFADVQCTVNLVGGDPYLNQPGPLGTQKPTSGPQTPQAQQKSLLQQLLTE
# Cytochrome P450 2C19, sequence (P33261 whole entry): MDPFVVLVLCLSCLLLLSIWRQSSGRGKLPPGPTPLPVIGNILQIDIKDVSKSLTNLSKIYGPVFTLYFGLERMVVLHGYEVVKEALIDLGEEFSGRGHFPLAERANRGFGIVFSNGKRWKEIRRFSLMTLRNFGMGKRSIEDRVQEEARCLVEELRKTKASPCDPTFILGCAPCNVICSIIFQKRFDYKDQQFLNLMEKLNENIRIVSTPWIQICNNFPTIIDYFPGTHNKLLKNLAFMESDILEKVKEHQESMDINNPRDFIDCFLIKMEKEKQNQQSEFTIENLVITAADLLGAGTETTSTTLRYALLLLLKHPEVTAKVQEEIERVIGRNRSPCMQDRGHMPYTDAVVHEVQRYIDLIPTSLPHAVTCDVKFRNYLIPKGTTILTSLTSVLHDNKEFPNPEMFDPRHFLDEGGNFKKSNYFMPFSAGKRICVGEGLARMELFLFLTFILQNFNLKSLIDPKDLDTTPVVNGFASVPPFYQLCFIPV
smiles,measurement,setting,value
CCn1c(=O)cc(SCC(=O)Nc2cccc(SC)c2)c2ccccc21,EC50,[1],69.8 µM (inactive)
same,EC50,[2],> 79.4 µM (not active)
same,EC50,[3],> 26.5 µM (not active)
CCOC(=O)c1sc2nc3c(cc2c1N)COC(C(C)C)C3 (stereo not given),EC50,[4],> 195 µM (not active)
same,EC50,[5],2.84 µM (active)
same,AC50,Cytochrome P450 2C19,22.4 µM (inconclusive)
same,EC50,HT-1080,> 50 µM (not active)
COc1cccc(N2CCN(C(S)=NCc3ccco3)CC2)c1,EC50,[6],> 50 µM (active)
CN1C(=O)C(c2c(O)[nH]c3ccccc23)=NC1=S,IC50,Beta-galactosidase,> 66.6 µM (inactive)
Cc1ccc(NC(=O)COc2ccccc2CNC(C)(C)CC(C)(C)C)cc1,CC50,[7],18.9 µM (active)
same,CC50,[8],13.8 µM (active)
same,CC50,[9],23.4 µM (active)
same,EC50,[10],1.36 µM (active)
same,CC50,[11],15.7 µM (active)
same,IC50,cells,13.4 µM (active)
same,EC50,[12],8.6 µM (active)
COc1ccc(-c2nn(-c3ccccc3)cc2/C=C2/SC(=S)N(CCCC(=O)O)C2=O)c(C)c1,IC50,[13],45 µM (active)
O=C(Nc1ccc2nc(S)sc2c1)Nc1ccccc1F,EC50,[6],> 50 µM (active)
Nc1ccc(-c2nc3ccc(N)cc3o2)cc1,EC50,[14],25 µM (active)
same,EC50,[5],6.3 µM (active)
same,IC50,[15],47.8 µM (active)
same,EC50,[16],20.1 µM (active)
same,EC50,HT-1080,> 50 µM (not active)
same,IC50,Aminopeptidase N,26.2 µM (active)
Nn1c(C2CCCCC2)nc2ccccc2c1=O,IC50,Coagulation factor XII,> 50 µM (inactive)
COc1cccc(NC(=O)Nc2ccccc2SC)c1,IC50,Coagulation factor XII,> 50 µM (inactive)
COc1cccc(Nc2nc(-c3sc(NC(=O)c4ccccc4)nc3C)cs2)c1,EC50,[1],14.8 µM (inactive)
same,EC50,[2],> 79.4 µM (not active)
same,EC50,[3],27.9 µM (not active)
Cc1occc1C(=O)N/N=C/c1cccs1,EC50,[6],> 50 µM (active)
Cc1cc(C)c2ccc(/C=N/O)nc2c1O,CC50,[7],22.9 µM (active)
same,CC50,[8],> 20 µM (active)
same,CC50,[11],19.5 µM (active)
same,IC50,cells,4.25 µM (active)
Cc1cc(Nc2ccc(C)c(C)c2)n2nc(C)nc2n1,IC50,Coagulation factor XII,> 50 µM (inactive)
